Results from patent publication US20040171659A1, “Methods for treating diabetes” (priority 2002, published 2004).

Tests used:
[1] = test system: rat insulinoma cells; settings: cited from earlier work
[2] = test system: monocyte migration; settings: Chen 2001; cited from earlier work
[3] = target: T1, p38 MAPK (Homo sapiens, UniProt Q16539); assay: phosphorylation assay of p38 MAPK activity (see Kumar); type: biochemical; settings: assay similar to the phosphorylation assay (Kumar); read-out: p38 MAPK activity, relative IC50 value
T1 construct: made in house; host or cells: cells (e.g., HeLa) transfected with kinase DNA, stimulated, kinase immunoprecipitated from lysate
T1 sequence (Q16539 whole entry): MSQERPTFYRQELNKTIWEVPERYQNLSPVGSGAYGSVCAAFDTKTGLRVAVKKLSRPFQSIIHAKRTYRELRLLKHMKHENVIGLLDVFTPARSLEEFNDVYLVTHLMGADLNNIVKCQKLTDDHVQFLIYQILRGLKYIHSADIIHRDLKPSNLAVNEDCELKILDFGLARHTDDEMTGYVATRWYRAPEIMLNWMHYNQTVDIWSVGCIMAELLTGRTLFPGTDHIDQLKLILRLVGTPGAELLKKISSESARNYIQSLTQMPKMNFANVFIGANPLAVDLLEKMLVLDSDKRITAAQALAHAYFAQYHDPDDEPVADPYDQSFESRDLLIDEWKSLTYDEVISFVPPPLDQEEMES
Protocol: After immunoprecipitation of cell lysates, equal aliquots of immune complexes of the kinases are pre-incubated for an adequate time with a specific concentration of the potential inhibitor followed by addition of kinase substrate buffer mix containing labeled ATP and GST-ATF2 or MBP. […] Phosphorylated substrate is resolved through SDS-PAGE and visualized and quantitated in a phosphorimager. […] Res. Commun.

IC50 [3]	SMILES	p38-dependent enhancement of cytokines expression by hsp70 [1]	Monocyte migration [2]
	C[S+]([O-])c1ccc(-c2nc(-c3ccncc3)c(-c3ccc(F)cc3)[nH]2)cc1 (stereo not drawn) [SB203580]	blocks this activity	blockade
< 5 nM	COc1cc2c(cc1C(=O)N1CC(C)N(Cc3ccc(F)cc3)CC1C)c(C(=O)C(=O)N(C)C)cn2C (stereo not drawn) [compound 15]		
